This passage reports IC50 results from patent publication US11976061B2, “Preparation of benzimidazolone derivatives as novel diacylglyceride O-acyltransferase 2 inhibitors” (Merck Sharp & Dohme LLC, priority 2020, dated 2024).

The structures appear in SMILES notation. Read-outs that look alike come from different tables or passages of the source.

For the assay, the target named is T1, human DGAT2 (hDGAT2) (Homo sapiens, UniProt Q96PD7).
T1 construct: made in house; host or cells: Sf-9 insect cells (baculovirus), membrane fraction
T1 sequence (Q96PD7 1-388): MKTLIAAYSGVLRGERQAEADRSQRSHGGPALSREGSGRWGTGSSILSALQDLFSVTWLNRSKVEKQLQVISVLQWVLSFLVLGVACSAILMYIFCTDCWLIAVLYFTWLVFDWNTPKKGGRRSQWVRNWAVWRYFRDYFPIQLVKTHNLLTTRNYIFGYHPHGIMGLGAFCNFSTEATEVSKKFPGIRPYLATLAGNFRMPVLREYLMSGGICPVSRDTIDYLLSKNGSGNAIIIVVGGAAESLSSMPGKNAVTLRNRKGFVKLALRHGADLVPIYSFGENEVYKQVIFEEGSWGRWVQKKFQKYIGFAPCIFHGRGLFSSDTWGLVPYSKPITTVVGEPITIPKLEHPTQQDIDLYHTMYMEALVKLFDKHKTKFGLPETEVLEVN
Kind of assay: DGAT2 Enzymatic Activity Assay. In kind it is biochemical. Conditions: membrane prep of Sf-9 cells expressing hDGAT2, 25 μM diolein, 5 μM 13C oleoyl-CoA, 13C18-triolein by LC/MS/MS. The method, then: Insect Cell Expression and Membrane Preparation
Sf-9 insect cells were maintained in Grace's insect cell culture medium with 10% heated-inactivated fetal bovine serum, 1% Pluronic F-68 and 0.14 μg/ml Kanamycine sulfate at 27° C. in a shaker incubator. After infection with untagged baculovirus expressing human DGAT2 (hDGAT2) at multiplicity of infection (MOI) 3 for 48 hours, cells were harvested. Cell pellets were suspended in buffer containing 10 mM Tris-HCl pH 7.5, 1 mM EDTA, 250 mM sucrose and Complete Protease Inhibitor Cocktail (Sigma Aldrich), and sonicated on ice. Cell debris were removed by centrifugation at 2000×g for 15 minutes. Membrane fractions were isolated by ultracentrifugation (100,000×g), resuspended in the same buffer, and frozen (−80° C.) for later use. The protein concentration was determined with the Pierce™ BCA Protein Assay Kit (Thermo Fisher Scientific). Expression of protein levels was analyzed by immunoblotting with rabbit anti-DGAT2 antibody (Abcam, ab102831) and donkey anti-rabbit IgG H&L Alexa Fluor® 647 (Abcam, ab150075) followed by detection using Typhoon FLA9000 (GE Healthcare).
LC/MS/MS analyses were performed using Thermal Fisher's LX4-TSQ Vantage system. This system consists of an Agilent binary high-performance liquid chromatography (HPLC) pump and a TSQ Vantage triple quadrupole MS/MS instrument. For each sample, 2 μL samples from the top organic layer of in-plate liquid-liquid extraction were injected onto a Thermo Betabasic C4 column (2.1 mm×20 mm, 5 μm particle size). The samples were then eluted using the following conditions; mobile phase: Isopropanol:acetonitrile/10 mM ammonium formate=50/35/15 (v/v/v), flow rate: 0.8 mL/min, temperature: 25° C. Data was acquired in positive mode using a heated electrospray ionization (HESI) interface. The operational parameters for the TSQ Vantage MS/MS instrument were a spray voltage of 3000 V, capillary temperature of 280° C., vaporizer temperature 400° C., sheath gas 45 arbitrary unit, Aux gas 10 arbitrary units, S-lens 165 and collision gas 1.0 mTorr. […] (SRM) chromatograms of ^13C18-triolein (Q1: 920.8>Q3: 621.3) and internal standard ^13C21-triolein (Q1: 923.8>Q3: 617.3) were collected for 33 sec. The peak area was integrated by Xcalibur Quan software. The ratio between the ^13C18triolein generated in the reaction and spiked in internal standard ^13C21-triolein was used to generate percentage inhibition and IC50 values. Compound percentage inhibition was calculated by the following formula: Inhibition %=1−[(compound response−low control)/(high control−low control)]×100%. Potent compounds were titrated and IC50 were calculated by 4 parameter sigmoidal curve fitting formula.
DGAT2 Enzymatic Activity Assay
DGAT2 activity was determined by measuring the amount of enzymatic product ^13C18-triolein (^13C-1,2,3-Tri(cis-9-octadecenoyl)glycerol) using the membrane prep mentioned above. The assay was carried out in ABgene 384-well assay plates in a final volume of 25 μL at rt. The assay mixture contained the following: assay buffer (100 mM Tris·Cl, pH 7.0, 20 mM MgCl2, 5% ethanol), 25 μM of diolein, 5 μM of ^13C oleoyl-CoA and 8 ng/μL of DGAT2 membrane.

The IC50 is the concentration that inhibits the measured activity by half. For the molecule `CC(C)(O)Cn1c(=O)n(-c2cccc(OC(F)F)c2)c2ccc(C(=O)NC3(C)CS(=O)(=O)C3)cc21` [Example 64, 1-(3-(difluoromethoxy)phenyl)-3-(2-hydroxy-2-methylpropyl)-N-(3-methyl-1,1-dioxidothietan-3-yl)-2-oxo-2,3-dihydro-1H-benzo[d]imidazole-5-carboxamide], the half-maximal inhibitory concentration (IC50) (read-out: Human DGAT2 IC50) turned out to be 35.6 nM.
Regarding `Cn1c(=O)n(-c2cccc(OC(F)F)c2)c2ccc(C(=O)NC3(C)CS(=O)(=O)C3)cc21` [Example 60, 1-(3-(difluoromethoxy)phenyl)-3-methyl-N-(3-methyl-1,1-dioxidothietan-3-yl)-2-oxo-2,3-dihydro-1H-benzo[d]imidazole-5-carboxamide], where the note is “read-out: DGAT2 IC50”, the half-inhibitory concentration (IC50) is 1090 nM.
On the same count and under the same terms, then `CC(C)n1c(=O)n(-c2cc(OCC(F)F)ccn2)c2ccc(C(=O)NC3(C)CCS(=O)(=O)CC3)cc21` [Example 119, 1-(4-(2,2-difluoroethoxy)pyridin-2-yl)-3-isopropyl-N-(4-methyl-1,1-dioxidotetrahydro-2H-thiopyran-4-yl)-2-oxo-2,3-dihydro-1H-benzo[d]imidazole-5-carboxamide], with 51 nM.
On the same count and under the same terms, as for `Cc1nc2ccc(-n3c(=O)n(C(C)C)c4cc(C(=O)NC5(C)CS(=O)(=O)C5)ccc43)cc2o1` [Example 49, 3-isopropyl-N-(3-methyl-1,1-dioxidothietan-3-yl)-1-(2-methylbenzo[d]oxazol-6-yl)-2-oxo-2,3-dihydro-1H-benzo[d]imidazole-5-carboxamide], the figure is above 10000 nM; as for `CC(C)n1c(=O)n(-c2cccc(OC(F)F)c2)c2c(F)cc(C(=O)N[C@]3(C)CCS(=O)(=O)C3)cc21` [Example 110, 1-[3-(difluoromethoxy)phenyl]-7-fluoro-3-isopropyl-N-[(3R)-3-methyl-1,1-dioxo-thiolan-3-yl]-2-oxo-benzimidazole-5-carboxamide], 7 nM.
With `CCOc1cc(-n2c(=O)n(C(C)C)c3cc(C(=O)NC4(C)CS(=O)(=O)C4)c(F)cc32)c(F)cn1` [Example 21, 1-(2-Ethoxy-5-fluoropyridin-4-yl)-6-fluoro-3-isopropyl-N-(3-methyl-1,1-dioxidothietan-3-yl)-2-oxo-2,3-dihydro-1H-benzo[d]imidazole-5-carboxamide], under “read-out: Human DGAT2 IC50”, the IC50 came out at 31 nM.
Same read-out and setting: as for `CC(C)Oc1cccc(-n2c(=O)n(C(C)C)c3cc(C(=O)NC4(C)CS(=O)(=O)C4)ccc32)c1` [Example 6, 1-(3-isopropoxyphenyl)-3-isopropyl-N-(3-methyl-1,1-dioxo-thietan-3-yl)-2-oxo-benzimidazole-5-carboxamide], the figure is 88 nM.
Take `CC(C(F)F)n1c(=O)n(-c2cccc(OC(F)F)c2)c2ccc(C(=O)NC3(C)CCS(=O)(=O)CC3)cc21` (single isomer, unassigned) [Example 45b, 1-(3-(Difluoromethoxy)phenyl)-3-(1,1-difluoropropan-2-yl)-N-(4-methyl-1,1-dioxidotetrahydro-2H-thiopyran-4-yl)-2-oxo-2,3-dihydro-1H-benzo[d]imidazole-5-carboxamide]: the half-inhibitory concentration (IC50) (read-out: DGAT2 IC50) was found to be 101 nM.
In the case of `CC(C)n1c(=O)n(-c2cccc(OC(F)F)c2)c2ccc(C(=O)NC3(C)CS(=O)(=O)C3)nc21` [Example 107, 1-(3-(difluoromethoxy)phenyl)-3-isopropyl-N-(3-methyl-1,1-dioxidothietan-3-yl)-2-oxo-2,3-dihydro-1H-imidazo[4,5-b]pyridine-5-carboxamide], the IC50 (read-out: Human DGAT2 IC50) was 1080 nM.
Turning to `CC(C)n1c(=O)n(-c2cccc(OC(F)F)c2)c2c(F)cc(C(=O)NC3(C)CCS(=O)(=O)CC3)cc21` [Example 111, 1-[3-(difluoromethoxy)phenyl]-7-fluoro-3-isopropyl-N-(4-methyl-1,1-dioxo-thian-4-yl)-2-oxo-benzimidazole-5-carboxamide], the IC50 (read-out: DGAT2 IC50) was 68 nM.
